Measured values published in patent US20250144067A1, “PERSONALIZED STARVATION THERAPY FOR CANCER” (Faeth Therapeutics, Inc., priority 2021, published 2025).
Structures can show the parent of a compound that is named as a salt. Where two headings read alike, the source gives them in different places.

Columns and labels:
[1] = system: NCI-H292 lung cancer cells; assay: FDA drug screening, complete media vs cholesterol-free media without statin (TABLE 1); format: cell-based, human
[2] = system: NCI-H292 lung cancer cells; assay: FDA drug screening, complete media vs cholesterol-free media with simvastatin (TABLE 2); format: cell-based, human
[3] = NCI-H292 cells, cholesterol-free media without statin
[4] = complete vs cholesterol-free media; greater than 0 enhanced anti-cancer activity, about 0 neutral, below 0 antagonists
[5] = NCI-H292 cells, cholesterol-free media with simvastatin 0.04 μM, FDA drug library screen (TABLE 2)
[6] = NCI-H292 cells, complete media, FDA drug library screen (TABLE 2)
[7] = complete media minus cholesterol-free media + simvastatin (0.04 μM), >0 enhanced anti-cancer activity, about 0 neutral, <0 antagonist
[8] = NCI-H292 cells, drug in cholesterol-free media with simvastatin 0.04 μM
[9] = NCI-H292 cells, drug in complete media
[10] = complete media vs cholesterol-free media + simvastatin (0.04 μM), >0 enhanced anti-cancer activity, about 0 neutral, <0 antagonist
[11] = Complete minus Cholesterol-free; greater than 0 enhanced anti-cancer activity, about 0 neutral, below 0 antagonist
[12] = NCI-H292 cells, FDA drug library screen, cholesterol-free media without statin
[13] = NCI-H292 cells, FDA drug library screen, complete media
[14] = NCI-H292 cells, FDA drug library screen, cholesterol-free media with simvastatin 0.04 μM
[15] = complete media minus cholesterol-free media + simvastatin, >0 enhanced anti-cancer activity, about 0 neutral, <0 antagonist
[16] = Complete minus Cholesterol-free; >0 enhanced anti-cancer activity, about 0 neutral, <0 antagonist
[17] = NCI-H292 cells, cholesterol-free media without statin, FDA drug library screen
[18] = NCI-H292 cells, complete media, FDA drug library screen
[19] = complete vs cholesterol-free media; >0 enhanced anti-cancer activity, about 0 neutral, <0 antagonist
[20] = NCI-H292 cells, cholesterol-free media with simvastatin 0.04 μM, cell growth value in FDA drug screen
[21] = NCI-H292 cells, complete media, cell growth value in FDA drug screen

**Q.** `C=CC(=O)N1CCC[C@@H](n2nc(-c3ccc(Oc4ccccc4)cc3)c3c(N)ncnc32)C1` (racemic) [Ibrutinib (Racemate)] was tested. Which Cholesterol-free [1, 3] did it give?
**A.** 1.242

**Q.** What about the Complete ([1]; NCI-H292 cells, complete media) of the same molecule?
**A.** 0.9233

**Q.** And the Difference [1, 4]?
**A.** −0.32

**Q.** And the “Cholesterol-free media + simvastatin (0.04 μM)” value [2, 5]?
**A.** 0.346

**Q.** And the “Complete Media” value [2, 6]?
**A.** 0.2858

**Q.** And the Difference [2, 7]?
**A.** −0.06

**Q.** What does the source list for Toremifene (citrate)?
**A.** Complete [1]: 0.7656; Difference [1]: −0.28; Cholesterol-free media + simvastatin (0.04 μM) [2]: 0.4491; Difference [2]: 0.61

**Q.** Which results are given for `C[C@H]1C[C@@H]2[C@H]([C@@H](O)C[C@@]3(C)[C@H]2CC[C@]3(O)C(=O)COC(=O)CCC(=O)O)[C@@]2(C)C=CC(=O)C=C12` [Methylprednisolone succinate]?
**A.** Cholesterol-free [1, 3]: 0.8243; Complete ([1]; NCI-H292 cells, complete media): 0.4661; Difference [1, 4]: −0.36; Cholesterol-free media + simvastatin (0.04 μM) [2, 8]: 0.9151; Complete Media [2, 9]: 0.7051; Difference [2, 10]: −0.21

**Q.** With `CCN(CC)C(=O)c1cccnc1` [Nikethamide] as the molecule, how does the Difference [1, 11] read?
**A.** −0.18

**Q.** What about the Cholesterol-free [1, 12] of the same molecule?
**A.** 1.071

**Q.** And the Complete [1, 13]?
**A.** 0.8953

**Q.** What about the “Cholesterol-free media + simvastatin (0.04 μM)” value [2, 14] of the same molecule?
**A.** −0.004932

**Q.** And the “Complete Media” value [2, 13]?
**A.** 1.43

**Q.** What about the Difference [2, 15] of the same molecule?
**A.** 1.44

**Q.** How did the Difference [1, 16] turn out when Clomiphene (citrate) was run?
**A.** −0.25

**Q.** And the Cholesterol-free [1, 3]?
**A.** 1.001

**Q.** And the Complete ([1]; NCI-H292 cells, complete media)?
**A.** 0.7484

**Q.** What about the “Cholesterol-free media + simvastatin (0.04 μM)” value [2, 14] of the same molecule?
**A.** 0.1462

**Q.** And the “Complete Media” value [2, 13]?
**A.** 1.001

**Q.** And the Difference [2, 15]?
**A.** 0.85

**Q.** What does the source list for `CCCC(=O)Nc1ncnc2c1ncn2[C@@H]1O[C@@H]2COP(=O)(O)O[C@H]2[C@H]1OC(=O)CCC` [Bucladesine (calcium)]?
**A.** Difference [1, 11]: −0.13; Cholesterol-free [1, 12]: 0.8949; Complete [1, 13]: 0.7629; Cholesterol-free media + simvastatin (0.04 μM) [2, 5]: 0.8302; Complete Media [2, 6]: 0.804; Difference [2, 7]: −0.03

**Q.** How did the Cholesterol-free [1, 17] turn out when `C#Cc1cccc(Nc2ncnc3cc(OCCOC)c(OCCOC)cc23)c1` [Erlotinib (Hydrochloride)] was run?
**A.** 0.2078

**Q.** What about the Complete [1, 18] of the same molecule?
**A.** 0.4921

**Q.** What about the Difference [1, 19] of the same molecule?
**A.** 0.28

**Q.** And the “Cholesterol-free media + simvastatin (0.04 μM)” value [2, 20]?
**A.** 0.6388

**Q.** And the “Complete Media” value [2, 21]?
**A.** 0.67

**Q.** And the Difference [2, 15]?
**A.** 0.03

**Q.** Which results are given for `CC(=O)SCC(Cc1ccccc1)C(=O)NCC(=O)OCc1ccccc1` (stereo not shown) [Racecadotril]?
**A.** Cholesterol-free [1, 3]: 1.294; Complete ([1]; NCI-H292 cells, complete media): 0.8911; Difference [1, 4]: −0.40; Cholesterol-free media + simvastatin (0.04 μM) [2, 8]: 1.092; Complete Media [2, 9]: 0.8523; Difference [2, 10]: −0.24

**Q.** What does the source list for `CC(=O)c1ccc(S(=O)(=O)NC(=O)NC2CCCCC2)cc1` [Acetohexamide]?
**A.** Difference [1, 11]: −0.13; Cholesterol-free [1, 12]: 1.163; Complete [1, 13]: 1.03; Cholesterol-free media + simvastatin (0.04 μM) [2, 14]: 1.214; Complete Media [2, 13]: 1.116; Difference [2, 10]: −0.10

**Q.** For `CC(C)(C)c1ccc(CN2CCN(C(c3ccccc3)c3ccc(Cl)cc3)CC2)cc1` (stereo not shown) [Buclizine (dihydrochloride)], which Cholesterol-free [1, 17] is on record?
**A.** 0.6562

**Q.** What about the Complete [1, 18] of the same molecule?
**A.** 1.363

**Q.** And the Difference [1, 19]?
**A.** 0.71

**Q.** What about the “Cholesterol-free media + simvastatin (0.04 μM)” value [2, 20] of the same molecule?
**A.** 0.9719

**Q.** And the “Complete Media” value [2, 21]?
**A.** 1.018

**Q.** And the Difference [2, 15]?
**A.** 0.05

**Q.** For `CC(C)C(=O)Oc1ccc(CO)cc1[C@H](CCN(C(C)C)C(C)C)c1ccccc1` [Fesoterodine], which Cholesterol-free [1, 17] is on record?
**A.** 0.8973

**Q.** And the Complete [1, 18]?
**A.** 1.535

**Q.** What about the Difference [1, 19] of the same molecule?
**A.** 0.64

**Q.** And the “Cholesterol-free media + simvastatin (0.04 μM)” value ([2]; NCI-H292 cells, FDA library drug in cholesterol-free media with simvastatin 0.04 μM)?
**A.** 1.104

**Q.** What about the “Complete Media” value ([2]; NCI-H292 cells, FDA library drug in complete media) of the same molecule?
**A.** 0.8265

**Q.** And the Difference [2, 10]?
**A.** −0.28

**Q.** How did the Cholesterol-free [1, 17] turn out when `C[C@@H](c1ncncc1F)[C@](O)(Cn1cncn1)c1ccc(F)cc1F` [Voriconazole] was run?
**A.** 0.6824

**Q.** And the Complete [1, 18]?
**A.** 0.9897

**Q.** What about the Difference [1, 19] of the same molecule?
**A.** 0.31

**Q.** And the “Cholesterol-free media + simvastatin (0.04 μM)” value [2, 8]?
**A.** 1.08

**Q.** What about the “Complete Media” value [2, 9] of the same molecule?
**A.** 0.8559

**Q.** And the Difference [2, 10]?
**A.** −0.22

**Q.** `CCOC(=O)C1=C(COCCN)NC(C)=C(C(=O)OC)C1c1ccccc1Cl` (stereo not shown) [Amlodipine] was tested. Which Cholesterol-free [1, 17] did it give?
**A.** 0.797

**Q.** And the Complete [1, 18]?
**A.** 1.434

**Q.** And the Difference [1, 19]?
**A.** 0.64

**Q.** And the “Cholesterol-free media + simvastatin (0.04 μM)” value [2, 14]?
**A.** 1.424

**Q.** What about the “Complete Media” value [2, 13] of the same molecule?
**A.** 1.705

**Q.** And the Difference [2, 15]?
**A.** 0.28

**Q.** Which Difference [1, 16] does the source give for `CC[C@@H]1/C=C(\C)C[C@H](C)C[C@H](OC)[C@H]2O[C@@](O)(C(=O)C(=O)N3CCCC[C@H]3C(=O)O[C@H](/C(C)=C/[C@@H]3CC[C@H](Cl)[C@H](OC)C3)[C@H](C)[C@@H](O)CC1=O)[C@H](C)C[C@@H]2OC` [Pimecrolimus] here?
**A.** −0.26

**Q.** And the Cholesterol-free [1, 3]?
**A.** 1.022

**Q.** And the Complete ([1]; NCI-H292 cells, complete media)?
**A.** 0.7576

**Q.** And the “Cholesterol-free media + simvastatin (0.04 μM)” value [2, 8]?
**A.** 1.1

**Q.** And the “Complete Media” value [2, 9]?
**A.** 0.8909

**Q.** What about the Difference [2, 10] of the same molecule?
**A.** −0.21
